Results as given in patent EP0049968A1, “Pharmaceutical compositions” (priority 1980, dated 1982).
Read-outs that look alike come from different tables or passages of the source.

Assays:
Format in all cases: cell-based
E. coli = test: MIC of compound (i) alone and in the presence of compound (iv), serial dilution in nutrient agar
Procedure: (§1) Activities of the compound (i) against a number of pathogenic organisms alone, and in the presence of 1.0, 2.5, 5.0 and 10 µg/ml of compound (iv).

Proteus mirabilis C889 = test: as above
Procedure: as §1

[1] = test system: Staphylococcus aureus Russell; test: as above
Procedure: as §1

Serratia marcescens US39 = test: as above
Procedure: as §1

Klebsiella aerogenes A = test: as above
Procedure: as §1

[2] = test system: Pseudomonas aeruginosa Dalgleish; test: as above
Procedure: as §1

[3] = test system: highly resistant strains of Pseudomonas aeruginosa (producing both a plasmid-and chromosomally-mediated β-lactamase); test: MIC of compound (i) alone and in combination with compound (iii), Pseudomonas aeruginosa strains; conditions: for MIC: Pseudomonas aeruginosa

CC1(C)S[C@@H]2[C@H](NC(=O)[C@H](NC(=O)Nc3cnc(Nc4ccc(S(N)(=O)=O)cc4)nc3O)c3ccc(O)cc3)C(=O)N2[C@H]1C(=O)O [compound (i)]
MIC (μg/ml) for compound (i) (E. coli; E. coli JT4 R+, compound (iv) 0 μg/ml (alone)): >100 µg/mL | MIC (μg/ml) for compound (i) (E. coli; E. coli JT4 R+, compound (iv) 1.0 μg/ml): 10 µg/mL | MIC (μg/ml) for compound (i) (E. coli; E. coli JT4 R+, compound (iv) 2.5 μg/ml): 2.5 µg/mL | MIC (μg/ml) for compound (i) (E. coli; E. coli JT4 R+, compound (iv) 5.0 μg/ml): 1.0 µg/mL | MIC (μg/ml) for compound (i) (E. coli; E. coli JT4 R+, compound (iv) 10 μg/ml): 0.5 µg/mL | MIC (μg/ml) for compound (i) (E. coli; E. coli JT39 R+, compound (iv) 0 μg/ml (alone)): >100 µg/mL | MIC (μg/ml) for compound (i) (E. coli; E. coli JT39 R+, compound (iv) 1.0 μg/ml): 1.0 µg/mL | MIC (μg/ml) for compound (i) (E. coli; E. coli JT39 R+, compound (iv) 2.5 μg/ml): 0.5 µg/mL | MIC (μg/ml) for compound (i) (E. coli; E. coli JT39 R+, compound (iv) 5.0 μg/ml): 0.5 µg/mL | MIC (μg/ml) for compound (i) (E. coli; E. coli JT39 R+, compound (iv) 10 μg/ml): 0.1 µg/mL | MIC (μg/ml) for compound (i) (Proteus mirabilis C889; compound (iv) 0 μg/ml (alone)): >100 µg/mL | MIC (μg/ml) for compound (i) (Proteus mirabilis C889; compound (iv) 1.0 μg/ml): 0.5 µg/mL | MIC (μg/ml) for compound (i) (Proteus mirabilis C889; compound (iv) 2.5 μg/ml): 0.2 µg/mL | MIC (μg/ml) for compound (i) (Proteus mirabilis C889; compound (iv) 5.0 μg/ml): 0.1 µg/mL | MIC (μg/ml) for compound (i) (Proteus mirabilis C889; compound (iv) 10 μg/ml): 0.1 µg/mL | MIC (μg/ml) for compound (i) ([1]; compound (iv) 0 μg/ml (alone)): 50 µg/mL | MIC (μg/ml) for compound (i) ([1]; compound (iv) 1.0 μg/ml): 2.5 µg/mL | MIC (μg/ml) for compound (i) ([1]; compound (iv) 2.5 μg/ml): 2.5 µg/mL | MIC (μg/ml) for compound (i) ([1]; compound (iv) 5.0 μg/ml): 1.0 µg/mL | MIC (μg/ml) for compound (i) ([1]; compound (iv) 10 μg/ml): 1.0 µg/mL | MIC (μg/ml) for compound (i) (Serratia marcescens US39; compound (iv) 0 μg/ml (alone)): 50 µg/mL | MIC (μg/ml) for compound (i) (Serratia marcescens US39; compound (iv) 1.0 μg/ml): 0.5 µg/mL | MIC (μg/ml) for compound (i) (Serratia marcescens US39; compound (iv) 2.5 μg/ml): 1.0 µg/mL | MIC (μg/ml) for compound (i) (Serratia marcescens US39; compound (iv) 5.0 μg/ml): 2.5 µg/mL | MIC (μg/ml) for compound (i) (Serratia marcescens US39; compound (iv) 10 μg/ml): 5.0 µg/mL | MIC (μg/ml) for compound (i) (Klebsiella aerogenes A; compound (iv) 0 μg/ml (alone)): 5.0 µg/mL | MIC (μg/ml) for compound (i) (Klebsiella aerogenes A; compound (iv) 1.0 μg/ml): 0.05 µg/mL | MIC (μg/ml) for compound (i) (Klebsiella aerogenes A; compound (iv) 2.5 μg/ml): 0.05 µg/mL | MIC (μg/ml) for compound (i) (Klebsiella aerogenes A; compound (iv) 5.0 μg/ml): 0.05 µg/mL | MIC (μg/ml) for compound (i) (Klebsiella aerogenes A; compound (iv) 10 μg/ml): 0.05 µg/mL | MIC (μg/ml) for compound (i) ([2]; inoculum 10^-2, compound (iv) 0 μg/ml (alone)): 50 µg/mL | MIC (μg/ml) for compound (i) ([2]; inoculum 10^-2, compound (iv) 1.0 μg/ml): 2.5 µg/mL | MIC (μg/ml) for compound (i) ([2]; inoculum 10^-2, compound (iv) 2.5 μg/ml): 1.0 µg/mL | MIC (μg/ml) for compound (i) ([2]; inoculum 10^-2, compound (iv) 5.0 μg/ml): 1.0 µg/mL | MIC (μg/ml) for compound (i) ([2]; inoculum 10^-2, compound (iv) 10 μg/ml): 2.5 µg/mL | MIC (μg/ml) for compound (i) ([2]; inoculum Undiluted, compound (iv) 0 μg/ml (alone)): >100 µg/mL | MIC (μg/ml) for compound (i) ([2]; inoculum Undiluted, compound (iv) 1.0 μg/ml): 10 µg/mL | MIC (μg/ml) for compound (i) ([2]; inoculum Undiluted, compound (iv) 2.5 μg/ml): 5.0 µg/mL | MIC (μg/ml) for compound (i) ([2]; inoculum Undiluted, compound (iv) 5.0 μg/ml): 5.0 µg/mL | MIC (μg/ml) for compound (i) ([2]; inoculum Undiluted, compound (iv) 10 μg/ml): 10 µg/mL | MIC ([3]; read-out: MIC µg/ml compound (i) alone): > 160 µg/mL | MIC ([3]; read-out: MIC µg/ml compound (i) alone, Geometric mean): > 160 µg/mL | MIC µg/ml compound (i) compound (iii) (µg/ml) 1, Geometric mean ([3]; geometric mean of 6 Pseudomonas aeruginosa strains, with compound (iii) 1 µg/ml, 95% confidence limits (13.7-58.5)): 28.3 µg/mL | MIC µg/ml compound (i) compound (iii) (µg/ml) 2, Geometric mean ([3]; geometric mean of 6 Pseudomonas aeruginosa strains, with compound (iii) 2 µg/ml, 95% confidence limits (4.7-21.4)): 10 µg/mL | MIC µg/ml compound (i) compound (iii) (µg/ml) 5, Geometric mean ([3]; geometric mean of 6 Pseudomonas aeruginosa strains, with compound (iii) 5 µg/ml, 95% confidence limits (3.1-12.9)): 6.1 µg/mL | MIC µg/ml compound (i) compound (iii) (µg/ml) 10, Geometric mean ([3]; geometric mean of 6 Pseudomonas aeruginosa strains, with compound (iii) 10 µg/ml, 95% confidence limits (2.7-14.6)): 6.3 µg/mL | MIC µg/ml compound (i) alone ([3]; strain 1822): >160 µg/mL | MIC µg/ml compound (i) compound (iii) (µg/ml) 1 ([3]; strain 1822, with compound (iii) 1 µg/ml): 40 µg/mL | MIC µg/ml compound (i) compound (iii) (µg/ml) 2 ([3]; strain 1822, with compound (iii) 2 µg/ml): 5 µg/mL | MIC µg/ml compound (i) compound (iii) (µg/ml) 5 ([3]; strain 1822, with compound (iii) 5 µg/ml): 2.5 µg/mL | MIC µg/ml compound (i) compound (iii) (µg/ml) 10 ([3]; strain 1822, with compound (iii) 10 µg/ml): 2.5 µg/mL | MIC µg/ml compound (i) compound (iii) (µg/ml) 1 ([3]; strain Dalgleish, with compound (iii) 1 µg/ml): 20 µg/mL | MIC µg/ml compound (i) compound (iii) (µg/ml) 2 ([3]; strain Dalgleish, with compound (iii) 2 µg/ml): 10 µg/mL | MIC µg/ml compound (i) compound (iii) (µg/ml) 5 ([3]; strain Dalgleish, with compound (iii) 5 µg/ml): 5 µg/mL | MIC µg/ml compound (i) compound (iii) (µg/ml) 10 ([3]; strain Dalgleish, with compound (iii) 10 µg/ml): 10 µg/mL | MIC µg/ml compound (i) alone ([3]; strain FR6): >160 µg/mL | MIC µg/ml compound (i) compound (iii) (µg/ml) 1 ([3]; strain FR6, with compound (iii) 1 µg/ml): 80 µg/mL | MIC µg/ml compound (i) compound (iii) (µg/ml) 2 ([3]; strain FR6, with compound (iii) 2 µg/ml): 40 µg/mL | MIC µg/ml compound (i) compound (iii) (µg/ml) 5 ([3]; strain FR6, with compound (iii) 5 µg/ml): 20 µg/mL | MIC µg/ml compound (i) compound (iii) (µg/ml) 10 ([3]; strain FR6, with compound (iii) 10 µg/ml): 10 µg/mL | MIC µg/ml compound (i) alone ([3]; strain FR13): >160 µg/mL | MIC µg/ml compound (i) compound (iii) (µg/ml) 1 ([3]; strain FR13, with compound (iii) 1 µg/ml): 40 µg/mL | MIC µg/ml compound (i) compound (iii) (µg/ml) 2 ([3]; strain FR13, with compound (iii) 2 µg/ml): 10 µg/mL | MIC µg/ml compound (i) compound (iii) (µg/ml) 5 ([3]; strain FR13, with compound (iii) 5 µg/ml): 5 µg/mL | MIC µg/ml compound (i) compound (iii) (µg/ml) 10 ([3]; strain FR13, with compound (iii) 10 µg/ml): 2.5 µg/mL | MIC µg/ml compound (i) alone ([3]; strain Horton): >160 µg/mL | MIC µg/ml compound (i) compound (iii) (µg/ml) 1 ([3]; strain Horton, with compound (iii) 1 µg/ml): 20 µg/mL
